Like-named read-outs stand apart in the source and are kept apart here.
Columns and labels:
[1] = rat microsomal stability (RLM)
PAMPA permeability = conditions: for Papp: Perm. (1 × 10^−6 cm/sec)
recombinant human GALK1 = recombinant human GALK1 (Homo sapiens, UniProt P51570); assay: hGALK1 biochemical activity assay (Kinase-Glo Plus, ATP depletion)
Experimental: In vitro hGALK1 activity assays were performed as previously described. Liu et al., Bioorg. Med. Chem. Lett. 25(3): 721-727 (2015), which is incorporated by reference herein for the specific teachings thereof. The biochemical assay was performed by coupling the activity of recombinant human or mouse GALK1 to the Kinase-Glo Plus luminescent ATP detection kit, using ATP depletion as a measure of GALK1 turnover. Specifically, three μL/well of ATP substrate solution (35 μM ATP) in assay buffer (20 mM HEPES pH 8.0, 5 mM MgCl2, 60 mM NaCl, 1 mM DTT, 0.01% BSA final concentration) was dispensed into 1536-well assay plates (Greiner, white solid-bottom medium-binding plates). Aliquots of compound (23 nL solubilized in DMSO) were transferred to the assay plates using a Kalypsys 1536-well pintool such that 11 concentrations with 1/3 dilutions ranging from 57.4 μM-0.97 nM are tested. One μL/well of GALK-galactose solution (5 nM GALK1, 100 μM galactose) in assay buffer was then added, yielding a final reaction volume of 4 μL/well. Following a 1-hour room temperature incubation, 4 μL of Kinase-Glo Plus detection reagent was added to provide an ATP-dependent luminescent readout (final assay volume: 8 μL/well).

recombinant mouse GALK1 = recombinant mouse GALK1 (Mus musculus, UniProt Q9R0N0); assay: mGALK1 biochemical activity assay (Kinase-Glo Plus, ATP depletion)
Experimental: In vitro hGALK1 activity assays were performed as previously described. Liu et al., Bioorg. […] The biochemical assay was performed by coupling the activity of recombinant human or mouse GALK1 to the Kinase-Glo Plus luminescent ATP detection kit, using ATP depletion as a measure of GALK1 turnover. […] One μL/well of GALK-galactose solution (5 nM GALK1, 100 μM galactose) in assay buffer was then added, yielding a final reaction volume of 4 μL/well. Following a 1-hour room temperature incubation, 4 μL of Kinase-Glo Plus detection reagent was added to provide an ATP-dependent luminescent readout (final assay volume: 8 μL/well).

[2] = aqueous kinetic solubility
[3] = recombinant human GALK1, Kinase-Glo Plus ATP depletion, read-out: hGALK
[4] = recombinant mouse GALK1, Kinase-Glo Plus ATP depletion, read-out: mGALK
[5] = Tables 2-15, 35 μM ATP, 100 μM galactose, 1 h, bracketed figure after some values (e.g. −1.2) is undefined and not reported, read-out: hGALK IC50
[6] = microsomal stability half-life, minutes
[7] = recombinant mouse GALK1, Kinase-Glo Plus ATP depletion, bracketed figure in the cell, e.g. (−1.2), is not defined in the text shown, read-out: mGALK
[8] = Tables 2-15, 35 μM ATP, 100 μM galactose, 1 h, bracketed figure after some values is undefined and not reported, read-out: mGALK IC50

recombinant human GALK1, sequence (P51570 whole entry): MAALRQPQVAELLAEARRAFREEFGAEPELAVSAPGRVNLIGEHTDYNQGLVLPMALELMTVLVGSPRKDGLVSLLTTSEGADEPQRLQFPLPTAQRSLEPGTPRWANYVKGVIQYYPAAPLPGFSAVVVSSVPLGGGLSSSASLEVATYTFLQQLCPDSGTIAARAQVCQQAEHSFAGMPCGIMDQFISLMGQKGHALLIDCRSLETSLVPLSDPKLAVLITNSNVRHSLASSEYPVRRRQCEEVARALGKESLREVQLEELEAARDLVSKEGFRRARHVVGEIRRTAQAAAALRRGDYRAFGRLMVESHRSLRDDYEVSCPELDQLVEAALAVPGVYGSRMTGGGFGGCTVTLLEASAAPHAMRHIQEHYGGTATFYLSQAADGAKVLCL
recombinant mouse GALK1, sequence (Q9R0N0 whole entry): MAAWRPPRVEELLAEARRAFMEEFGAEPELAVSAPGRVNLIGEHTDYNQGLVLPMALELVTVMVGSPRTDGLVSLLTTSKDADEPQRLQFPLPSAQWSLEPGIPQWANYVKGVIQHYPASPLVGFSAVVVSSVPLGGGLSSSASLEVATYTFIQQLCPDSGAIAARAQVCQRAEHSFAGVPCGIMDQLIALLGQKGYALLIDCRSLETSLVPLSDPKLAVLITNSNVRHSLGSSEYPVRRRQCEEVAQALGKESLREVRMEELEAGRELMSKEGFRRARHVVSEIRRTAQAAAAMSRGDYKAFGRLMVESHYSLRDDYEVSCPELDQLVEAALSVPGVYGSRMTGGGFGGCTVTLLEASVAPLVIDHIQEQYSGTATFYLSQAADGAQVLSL

Metab. Stabil. (m) ([1]; microsomal stability half-life) | Perm. (1 × 10^−6 cm/sec) (PAMPA permeability; PAMPA) | IC50 (recombinant human GALK1; [3]) [µM] | IC50 (recombinant mouse GALK1; [4]) [µM] | Sol. ([2]; aqueous kinetic solubility) [µg/mL] | Metab. Stabil. (m) ([1]; microsomal half-life) | Perm. (1 × 10^−6 cm/sec) (PAMPA permeability) | Sol. [2] [µg/mL] | SMILES | other results
14.14 | 289.5 1 × 10^−6 cm/sec | 0.48 | 8.63 | 4.6 | – | – | – | CCn1cc(CNC(=O)C2=C(C)NC(Nc3nc4cccc(N)c4o3)=NC2c2ccc(Cl)cc2Cl)cn1 (centres unmarked) [Compound 120, 2-((7-aminobenzo[d]oxazol-2-yl)amino)-4-(2,4-dichlorophenyl)-N-((1-ethyl-1H-pyrazol-4-yl)methyl)-6-methyl-1,4-dihydropyrimidine-5-carboxamide] | –
– | – | 1.72 | 12.2 | – | 26 | 942.87 1 × 10^−6 cm/sec | 13.7 | CC1=C(C(=O)NCc2cnn(C)c2)C(c2ccccc2Cl)N=C(Nc2nc3ccc(F)cc3o2)N1 (centres unmarked) [Compound 44, 4-(2-chlorophenyl)-2-((6-fluorobenzo[d]oxazol-2-yl)amino)-6-methyl-N-((1-methyl-1H-pyrazol-4-yl)methyl)-1,4-dihydropyrimidine-5-carboxamide] | –
11.91 | 25.8 1 × 10^−6 cm/sec | – | – | <1 | – | – | – | CC1=C(C(=O)NCc2ccc(Cl)cc2)C(c2ccccc2Cl)N=C(Nc2nc3ccccc3o2)N1 (centres unmarked) [Compound 218, 2-(benzo[d]oxazol-2-ylamino)-4-(2-chlorophenyl)-N-(4-chlorobenzyl)-6-methyl-1,4-dihydropyrimidine-5-carboxamide] | hGALK IC50 (recombinant human GALK1; Tables 2-15, 35 μM ATP, 100 μM galactose, 1 h, bracketed figure after some values (e.g. −1.2) is undefined and not reported): inactive; hGALK (μM) (recombinant human GALK1; recombinant human GALK1, Kinase-Glo Plus ATP depletion): in- active; mGALK IC50 (recombinant mouse GALK1; Tables 2-15, 35 μM ATP, 100 μM galactose, 1 h, bracketed figure after some values is undefined and not reported): inactive; mGALK (μM) (recombinant mouse GALK1; recombinant mouse GALK1, Kinase-Glo Plus ATP depletion): in- active
– | 219.68 1 × 10^−6 cm/sec | – | – | 10.84 | – | – | – | CN(C)C(=O)C1CC(=O)C2=C(C1)NC(Nc1nc3ccccc3o1)=NC2c1ccccc1Cl (centres unmarked) [Compound 277, 2-(benzo[d]oxazol-2-ylamino)-4-(2-chlorophenyl)-N,N-dimethyl-5-oxo-1,4,5,6,7,8-hexahydroquinazoline-7-carboxamide] | Metab. Stabil. (m) [1, 6]: 20.79 m; IC50 (recombinant mouse GALK1; [7]): 4.32 µM
>30 | 863.9 1 × 10^−6 cm/sec | – | – | <1 | – | – | – | CC1=C(C(=O)Nc2ccc(CO)cc2)C(c2ccccc2Cl)N=C(Nc2nc3ccccc3o2)N1 (centres unmarked) [Compound 160, 2-(benzo[d]oxazol-2-ylamino)-4-(2-chlorophenyl)-N-(4-(hydroxymethyl)phenyl)-6-methyl-1,4-dihydropyrimidine-5-carboxamide] | IC50 (recombinant human GALK1; [5]): 17.2 µM
– | 407.39 1 × 10^−6 cm/sec | 0.07 | 0.97 | 2.05 | – | – | – | CCn1cc(CNC(=O)C2=C(C)NC(Nc3nc4ccc(F)c(N)c4o3)=N[C@H]2c2ccc(C)cc2Cl)cn1 [Compound 135, (R)-2-((7-amino-6-fluorobenzo[d]oxazol-2-yl)amino)-4-(2-chloro-4-methylphenyl)-N-((1-ethyl-1H-pyrazol-4-yl)methyl)-6-methyl-1,4-dihydropyrimidine-5-carboxamide] | –
>30 | – | 6.85 | 12.2 | <1 | – | – | – | CC1=C(C(=O)Nc2cccc(F)c2)C(c2ccccc2Cl)N=C(Nc2nc3ccccc3o2)N1 (centres unmarked) [Compound 158, 2-(benzo[d]oxazol-2-ylamino)-N-(3-fluorophenyl)-4-(2-chlorophenyl)-6-methyl-1,4-dihydropyrimidine-5-carboxamide] | IC50 (recombinant mouse GALK1; [8]): 12.2 µM
– | – | 3.43 | – | – | >30 | <4.9 1 × 10^−6 cm/sec | <1 | CC1=C(C(=O)Nc2cc(C(=O)O)ccn2)C(c2ccc(-c3ccccc3)cc2Cl)N=C(Nc2nc3ccc(F)cc3o2)N1 (centres unmarked) [Compound 65, 2-(4-(3-chloro-[1,1′-biphenyl]-4-yl)-2-((6-fluorobenzo[d]oxazol-2-yl)amino)-6-methyl-1,4-dihydropyrimidine-5-carboxamido)isonicotinic acid] | –

More lines, now with the values behind:

SMILES | Metab. Stabil. (m) ([1]; microsomal stability half-life) | Perm. (1 × 10^−6 cm/sec) (PAMPA permeability; PAMPA) | IC50 (recombinant human GALK1; [3]) [µM] | IC50 (recombinant mouse GALK1; [4]) [µM] | Sol. ([2]; aqueous kinetic solubility) [µg/mL] | Metab. Stabil. (m) ([1]; microsomal half-life) | Perm. (1 × 10^−6 cm/sec) (PAMPA permeability) | Sol. [2] [µg/mL] | other results
CCOC(=O)c1cccc(NC(=O)C2=C(C)NC(Nc3nc4ccccc4o3)=NC2c2ccccc2Cl)c1 (centres unmarked) [Compound 139, ethyl 3-(2-(benzo[d]oxazol-2-ylamino)-4-(2-chlorophenyl)-6-methyl-1,4-dihydropyrimidine-5-carboxamido)benzoate] | >30 | – | 3.85 | – | <1 | – | – | – | Papp (PAMPA permeability; PAMPA): 8.8 ×10⁻⁶ cm/s
COC(=O)c1cncc(NC(=O)C2=C(C)NC(Nc3nc4ccccc4o3)=NC2c2ccccc2Cl)c1 (centres unmarked) [Compound 188, methyl 5-(2-(benzo[d]oxazol-2-ylamino)-4-(2-chlorophenyl)-6-methyl-1,4-dihydropyrimidine-5-carboxamido)nicotinate] | >30 | 246.9 1 × 10^−6 cm/sec | 21.7 | – | <1 | – | – | – | IC50 (recombinant human GALK1; [5]): 21 µM
CC1=C(C(=O)Nc2ccc(-c3nnn[nH]3)cc2)C(c2ccccc2Cl)N=C(Nc2nc3ccccc3o2)N1 (centres unmarked) [Compound 192, N-(4-(1H-tetrazol-5-yl)phenyl)-2-(benzo[d]oxazol-2-ylamino)-4-(2-chlorophenyl)-6-methyl-1,4-dihydropyrimidine-5-carboxamide] | 30 | – | 4.85 | – | 33.4 | – | – | – | Papp (PAMPA permeability; PAMPA): < 1.7 ×10⁻⁶ cm/s; IC50 (recombinant human GALK1; [5]): 4.85 µM
CC1=C(C(=O)Nc2nnc(-c3cccnc3)s2)C(c2ccccc2Cl)N=C(Nc2nc3cc(N)ccc3o2)N1 (centres unmarked) [Compound 101, 2-((5-aminobenzo[d]oxazol-2-yl)amino)-4-(2-chlorophenyl)-6-methyl-N-(5-(pyridin-3-yl)-1,3,4-thiadiazol-2-yl)-1,4-dihydropyrimidine-5-carboxamide] | – | – | 10.9 | – | – | >30 | 4.4 1 × 10^−6 cm/sec | 1.8 | –
COC(=O)c1ccnc(NC(=O)C2=C(C)NC(Nc3nc4cccc(N)c4o3)=NC2c2ccc(C)cc2Cl)c1 (centres unmarked) [Compound 91] | – | – | – | 7.08 | – | 25.2784 | 177.1 1 × 10^−6 cm/sec | <1 | –
COP(=O)(OC)C1=C(C)NC(Nc2nc3ccccc3o2)=NC1c1ccccc1Cl (centres unmarked) [Compound 242, dimethyl (2-(benzo[d]oxazol-2-ylamino)-4-(2-chlorophenyl)-6-methyl-1,4-dihydropyrimidin-5-yl)phosphonate] | 5.35 | 1813.86 1 × 10^−6 cm/sec | 17.2 | – | 12.21 | – | – | – | –
CC1=C(C(=O)Nc2cc(C(=O)O)ccn2)C(c2ccc(C)cc2Cl)N=C(Nc2ncc(-c3ccccc3)o2)N1 (centres unmarked) [Compound 103, 2-(4-(2-chloro-4-methylphenyl)-6-methyl-2-((5-phenyloxazol-2-yl)amino)-1,4-dihydropyrimidine-5-carboxamido)isonicotinic acid] | – | – | 24.3 | – | – | >30 | 4.14 1 × 10^−6 cm/sec | 42.2 | IC50 (recombinant human GALK1; [5]): 24.3 µM
CC1=C(C(=O)Nc2cc(C(=O)O)ccn2)C(c2ccc(C(=O)O)cc2Cl)N=C(Nc2nc3ccc(F)cc3o2)N1 (centres unmarked) [Compound 72, 2-(4-(4-carboxy-2-chlorophenyl)-2-((6-fluorobenzo[d]oxazol-2-yl)amino)-6-methyl-1,4-dihydropyrimidine-5-carboxamido)isonicotinic acid] | – | – | 2.17 | – | – | >30 | <1 1 × 10^−6 cm/sec | >83 | IC50 (recombinant human GALK1; [5]): 2.17 µM
COCC1=C(C(=O)Nc2nncs2)C(c2ccccc2Cl)N=C(Nc2nc3ccccc3o2)N1 (centres unmarked) [Compound 247] | – | 319.8 1 × 10^−6 cm/sec | – | – | <1 | – | – | – | Metab. Stabil. (m) [1, 6]: >30 m; IC50 (recombinant mouse GALK1; [7]): 19.3 µM
COC(=O)c1ccc(NC(=O)C2=C(C)NC(Nc3nc4ccccc4o3)=NC2c2ccccc2Cl)cc1 (centres unmarked) [Compound 138] | 17.7182 | 25.4 1 × 10^−6 cm/sec | – | 9.68 | <1 | – | – | – | IC50 (recombinant mouse GALK1; [8]): 9.68 µM

— patent US20230158025A1 (UNIVERSITY OF UTAH RESEARCH FOUNDATION, priority 2020, published 2023)
